Consider eight compounds from PubChem BioAssay (NCI).

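How tested: cells in 96-well plates exposed to compound for 48 hours at five concentrations. Definition used: TGI = concentration required for complete inhibition of growth.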

Among the test systems are K-562 leukemia; MDA-MB-231 breast; UACC-257 melanoma; NCI-H460 lung; RXF 393 renal; HOP-92 NSCLC; A498 renal; NCI/ADR-RES ovarian; MDA-N; OVCAR-3 ovarian; NCI-H226 lung; SF-539 CNS; SF-295 CNS; HOP-62 NSCLC; 786-0 renal; KM12 colon; HS 578T breast; UO-31 renal; SNB-19 CNS; LOX IMVI melanoma.
What all share (test): DTP human tumour cell line panel, 48 h

For orientation: TGI means the concentration at which net growth stops. A lower TGI goes with greater sensitivity of the cells. On to `COC(=O)c1cc2c(cc1Cl)Sc1nnc(Nc3ccc(C)cc3)n1S2(=O)=O`, for which the TGI in the assay with K-562 leukemia was found to be 33.4 µM; in the assay with MDA-MB-231 breast, 27.2 µM; in the assay with UACC-257 melanoma, 25.6 µM; in the assay on NCI-H460 lung, 25.7 µM; with RXF 393 renal, 13.2 µM; with HOP-92 NSCLC, 16.5 µM. For the same compound, the TGI in the assay on A498 renal was 28.9 µM; in the assay on NCI/ADR-RES ovarian, 25.7 µM; in the assay with MDA-N, 20.6 µM; with OVCAR-3 ovarian, 5.77 µM; with NCI-H226 lung, 28.2 µM; in the assay on SF-539 CNS, 2.92 µM. Moreover, the TGI stood at 30.4 µM in the assay with SF-295 CNS; 23.5 µM in the assay on HOP-62 NSCLC; 24.1 µM with 786-0 renal; 20.3 µM in the assay on KM12 colon; 32.7 µM with HS 578T breast; 23.6 µM in the assay on UO-31 renal. This compound showed a TGI in the assay on SNB-19 CNS of 20.2 µM.

As to `O=C(c1ccco1)N(C(=S)OCCOc1ccccc1)c1ccccc1`, the TGI came to 83.4 µM in the assay with K-562 leukemia; 30.6 µM in the assay with MDA-MB-231 breast; 37.4 µM in the assay on UACC-257 melanoma; 58.6 µM in the assay on NCI-H460 lung; 28.2 µM in the assay on RXF 393 renal; 37.5 µM with HOP-92 NSCLC. The TGI was 33.1 µM with A498 renal; 58.6 µM in the assay with NCI/ADR-RES ovarian; 33.9 µM with MDA-N; 34.5 µM with LOX IMVI melanoma; 32.2 µM in the assay on OVCAR-3 ovarian; 39 µM with SF-539 CNS. For the same compound, the TGI with SF-295 CNS was 36.6 µM; in the assay on HOP-62 NSCLC it was 32.1 µM; in the assay with 786-0 renal, 38.3 µM; in the assay with KM12 colon it was 46.2 µM; in the assay on HS 578T breast it was greater than 100 µM; in the assay on UO-31 renal it was 35.5 µM. Further, the TGI in the assay with SNB-19 CNS worked out at 59.7 µM.

For `C1=Cc2cc3c(c4nccc(c24)N1)OCO3`, the TGI with K-562 leukemia is 98.9 µM; in the assay on MDA-MB-231 breast, greater than 64.7 µM; in the assay on UACC-257 melanoma, 50.7 µM; with NCI-H460 lung, greater than 30.6 µM; in the assay on RXF 393 renal, 5.64 µM; with HOP-92 NSCLC, greater than 100 µM. Besides, the TGI is greater than 85.1 µM in the assay with A498 renal; greater than 67.2 µM in the assay with NCI/ADR-RES ovarian; 24.2 µM with MDA-N; greater than 61.1 µM in the assay on LOX IMVI melanoma; greater than 100 µM in the assay with OVCAR-3 ovarian; 36.7 µM in the assay with NCI-H226 lung. The TGI in the assay on SF-295 CNS is 22.3 µM; in the assay with HOP-62 NSCLC, greater than 82.4 µM; with 786-0 renal it was 21.2 µM; with KM12 colon it was 23.6 µM; in the assay on HS 578T breast, 32.5 µM; in the assay with UO-31 renal, greater than 48.8 µM. The compound also gave a TGI in the assay with SNB-19 CNS greater than 34.7 µM.

Take `CCCc1c(O)nc(Nc2nc3ccccc3[nH]2)[nH]c1=O`: the TGI with K-562 leukemia, in the assay with MDA-MB-231 breast, with UACC-257 melanoma, in the assay on NCI-H460 lung, in the assay with RXF 393 renal and in the assay on HOP-92 NSCLC was greater than 100 µM each time. The TGI with A498 renal, in the assay on NCI/ADR-RES ovarian, in the assay on MDA-N, in the assay with NCI-H226 lung, with SF-539 CNS and with SF-295 CNS was greater than 100 µM throughout. Moreover, the TGI in the assay with 786-0 renal, with KM12 colon, with HS 578T breast, in the assay with UO-31 renal and with SNB-19 CNS was greater than 100 µM in each case.

As to `O=[N+]([O-])c1ccc(S(=O)(=O)n2c3ccc(Br)cc3c3nc4ccccc4nc32)cc1`, the TGI with K-562 leukemia, in the assay on MDA-MB-231 breast, in the assay on UACC-257 melanoma, in the assay on NCI-H460 lung, with RXF 393 renal and in the assay with HOP-92 NSCLC was greater than 100 µM in each case. Also, the TGI in the assay on A498 renal, in the assay on NCI/ADR-RES ovarian, in the assay with MDA-N, in the assay with LOX IMVI melanoma, with OVCAR-3 ovarian and with NCI-H226 lung was greater than 100 µM in each case. Also, the TGI with SF-295 CNS, in the assay with HOP-62 NSCLC, in the assay with 786-0 renal, with KM12 colon, in the assay with HS 578T breast and in the assay with UO-31 renal was greater than 100 µM throughout. This compound displayed a TGI with SNB-19 CNS greater than 100 µM.

On to `O=C1c2ccccc2C(=O)N1CCCCNOCCCN1C(=O)c2ccccc2C1=O`, for which the TGI with K-562 leukemia, with MDA-MB-231 breast, in the assay with UACC-257 melanoma, with NCI-H460 lung, in the assay on RXF 393 renal and in the assay on HOP-92 NSCLC was greater than 100 µM each time. Besides, the TGI in the assay on A498 renal, in the assay with NCI/ADR-RES ovarian, in the assay on MDA-N, with LOX IMVI melanoma, in the assay on OVCAR-3 ovarian and in the assay with NCI-H226 lung was greater than 100 µM each time. The TGI in the assay with SF-295 CNS, in the assay with HOP-62 NSCLC, with 786-0 renal, in the assay with KM12 colon, in the assay on HS 578T breast and in the assay on UO-31 renal was greater than 100 µM each time. The compound further had a TGI in the assay with SNB-19 CNS greater than 100 µM.

Consider `CCOC(=O)Cc1nc2cc(F)c(F)cc2[nH]c1=O`, for which the TGI in the assay with K-562 leukemia, in the assay on MDA-MB-231 breast, in the assay with UACC-257 melanoma, in the assay on NCI-H460 lung, in the assay with RXF 393 renal and in the assay on HOP-92 NSCLC was greater than 100 µM throughout. For the same compound, the TGI in the assay with NCI/ADR-RES ovarian, in the assay on MDA-N, with LOX IMVI melanoma, with OVCAR-3 ovarian, in the assay with NCI-H226 lung and with SF-539 CNS was greater than 100 µM throughout. Besides, the TGI in the assay with SF-295 CNS, in the assay on HOP-62 NSCLC, with 786-0 renal, in the assay with KM12 colon, with HS 578T breast and in the assay on UO-31 renal was greater than 100 µM throughout. The same compound displayed a TGI with SNB-19 CNS greater than 100 µM.

As to `O=c1cc(N2CCCC2)[nH]c(=O)n1-c1cccc(Cl)c1`, the TGI with K-562 leukemia, in the assay on MDA-MB-231 breast, in the assay on UACC-257 melanoma, with NCI-H460 lung, in the assay on RXF 393 renal and in the assay on HOP-92 NSCLC was greater than 100 µM throughout. Moreover, the TGI in the assay with A498 renal, in the assay with NCI/ADR-RES ovarian, in the assay on MDA-N, with LOX IMVI melanoma, in the assay on OVCAR-3 ovarian and with NCI-H226 lung was greater than 100 µM throughout. For the same compound, the TGI with SF-539 CNS, with SF-295 CNS, in the assay on HOP-62 NSCLC, in the assay with 786-0 renal, with KM12 colon and in the assay on HS 578T breast was greater than 100 µM each time. In the assay with SNB-19 CNS, this compound showed a TGI greater than 100 µM.
